Source: paper PMC10179075 (International Journal of Molecular Sciences, 2023)
Residue numbers refer to the chain shown, from its start. Like-named read-outs stand apart in the source and are kept apart here.

Tests used:
[1] = tested on: E. indica LL population (homozygous P106L in EPSPS); assay: Whole-plant dose-response assay, LL population; assay type: in vivo, Eleusine indica; conditions: glyphosate alone, fresh weight at 21 DAT, value ± SE
Description: (§1) Plants with homozygous mutations Pro106Ser (P106S), Pro106Leu (P106L), Thr102Ile + Pro106Ser (TIPS), and WT were screened from a population with a similar background, as we previously described. […] Plants with the same confirmed genotype were cultured (bulk in isolation) and the seeds were produced and purified. The purified subpopulations were named SS, LL, IISS, and WT. […] The plants were cultured under greenhouse conditions of day and night temperatures of 30 °C and 20 °C (±2 °C), respectively, with a relative humidity of 60% ± 20%, and a 14-h photoperiod, during which LEDs provided light intensity of 300 μmol m^−2 s^−1. After thinning, eight plants per pot were maintained. […] [18]. Thereafter, P450- (10 mM piperonylbutoxide) and GST-inhibitors (3 mM 4-chloro-7-nitro-1, 2, 3-benzoxadiazole) were sprayed to exclude other non-target-site resistance mechanisms. […] Water and inhibitors were applied through control spraying (Supplementary Tables S1 and S3). The fresh weight of the fresh aboveground tissues was measured at 21 DAT. Whole-plant assays were repeated twice in a completely randomised design.
(§2) Data from the whole-plant assays and emerged seedlings were analysed through nonlinear regression using a log-logistic model: y = y0 + a/[1 + (x/x0)^b] in SigmaPlot 12.0 (Systat Software, San Jose, CA, USA).

[2] = biological target: T1, natural (wild type) E. indica EPSPS (EiEPSPS), recombinant expressed in E. coli (Eleusine indica, UniProt Q95AK0); assay: ForteBio Octet binding kinetics, wild type EPSPS
T1 sequence (Q95AK0 43-445): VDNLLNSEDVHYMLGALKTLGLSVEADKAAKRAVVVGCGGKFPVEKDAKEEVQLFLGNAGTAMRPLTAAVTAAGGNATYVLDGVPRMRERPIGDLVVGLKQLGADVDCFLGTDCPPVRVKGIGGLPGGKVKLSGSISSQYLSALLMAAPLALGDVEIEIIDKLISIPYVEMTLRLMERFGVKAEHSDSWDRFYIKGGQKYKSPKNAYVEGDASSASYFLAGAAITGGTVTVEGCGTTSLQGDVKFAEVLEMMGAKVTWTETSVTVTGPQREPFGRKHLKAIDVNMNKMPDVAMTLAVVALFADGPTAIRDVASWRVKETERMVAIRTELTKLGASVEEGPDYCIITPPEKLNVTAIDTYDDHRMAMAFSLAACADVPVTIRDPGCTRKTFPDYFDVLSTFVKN
Description: (§3) Target EPSPS genes with different mutations were amplified through PCR using primers (Supplementary Table S4) and the synthesised cDNA, then cloned into the BamHI and HindIII cleavage sites of the pET-28a expression vector (New England Biolabs Inc., Ipswich, MA, USA). After DNA sequencing, the pET-28a plasmid (Thermo Fisher Scientific Inc., Waltham MA, USA) containing the target genes was transformed into BL21 (DE3) cells (Thermo Fisher Scientific Inc.). Selected clones were cultured in Luria-Bertani medium. Cells containing target genes that had grown to an OD600 of 0.5 were induced with […] IPTG (0487; Amresco LLC, Solon, OH, USA) at 37 °C for 4 h. The cells were then pelleted through centrifugation at 10,000× g for 10 min and resuspended in 50 mM Tris-HCl and 150 mM NaCl, pH 7.4 (buffer A). The suspension was sonicated and centrifuged at 12,000× g for 30 min, the supernatant was filtered through a 0.22 µm membrane and passed through a HiTrap His column (10318950; Cytiva, Global Life Sciences Solutions USA, LLC., Marlborough, MA, USA). […] Target protein concentrations were determined using the Bradford method (500-0001) with Dye Reagent (both from Bio-Rad Laboratories Inc., Hercules, CA, USA).
To prevent primary amines reducing the biotinylation ratio, the EPSPS and mutations were exchanged with PBS buffer using a PD10 desalting column (17085101; Cytiva, Global Life Sciences Solutions USA, LLC.) as described by the manufacturer. The proteins were then concentrated using an ultrafilter (Merck KGaA, Darmstadt, Germany), then the concentrations were determined, as described above. […] A mixture of protein and sulfo-NHS-LC-biotin at a molar ratio of 1:5 was incubated at 4 °C for 16 h, then free biotin molecules were removed using a PD10 desalting column and biotinylated protein concentrations were measured using the Bradford method. […]
(§4) Data for protein-small molecule binding studies and curve fitting were analysed using ForteBio Data Analysis Software v. […]

[3] = tested on: E. indica SS population (homozygous P106S in EPSPS); assay: Whole-plant dose-response assay, SS population; assay type: in vivo, Eleusine indica; conditions: glyphosate alone, fresh weight at 21 DAT, value ± SE
Description: as §1, §2

wild type (WT) E. indica = assay: Shikimate accumulation assay, WT population; assay type: in vivo, Eleusine indica; conditions: 1800 g a.e. ha^−1 (7.1 mM) glyphosate, seven DAT
Description: Leaf tissue samples collected on 1, 3, 5, and 7 DAT were finely ground in liquid nitrogen, added to 1.0 mL of 0.25 mol L^−1 cold HCl, and centrifuged at 12,000 rpm for 30 min. Supernatants (0.2 mL) were incubated with 2 mL of 1% periodic acid for 3 h at room temperature. Thereafter, 2 mL of 1 mol L^−1 NaOH and 1.2 mL of 0.1 mol L^−1 glycine were added, then the optical density of 0.2 mL/well was determined in 96-well plates at 380 nm using a Tecan Infinite 200 Pro plate reader (Tecan Group Ltd., Männedorf, Switzerland). The results for all samples were compared with a standard curve of 0.1–400.0 μg shikimate and are expressed as μg of shikimate g^−1 fresh tissue. This experiment was repeated twice.

[4] = biological target: E. indica EPSPS Thr102Ile + Pro106Ser (TIPS) mutant, recombinant expressed in E. coli (Eleusine indica, UniProt Q95AK0, P107S/T103I); assay: biochemical; assay type: binding
Description: (§5) Target EPSPS genes with different mutations were amplified through PCR using primers (Supplementary Table S4) and the synthesised cDNA, then cloned into the BamHI and HindIII cleavage sites of the pET-28a expression vector (New England Biolabs Inc., Ipswich, MA, USA). After DNA sequencing, the pET-28a plasmid (Thermo Fisher Scientific Inc., Waltham MA, USA) containing the target genes was transformed into BL21 (DE3) cells (Thermo Fisher Scientific Inc.). Selected clones were cultured in Luria-Bertani medium. Cells containing target genes that had grown to an OD600 of 0.5 were induced with […] IPTG (0487; Amresco LLC, Solon, OH, USA) at 37 °C for 4 h. The cells were then pelleted through centrifugation at 10,000× g for 10 min and resuspended in 50 mM Tris-HCl and 150 mM NaCl, pH 7.4 (buffer A). The suspension was sonicated and centrifuged at 12,000× g for 30 min, the supernatant was filtered through a 0.22 µm membrane and passed through a HiTrap His column (10318950; Cytiva, Global Life Sciences Solutions USA, LLC., Marlborough, MA, USA). Target proteins were eluted with 50 mM Tris-HCl, 150 mM NaCl, 500 mM imidazole, pH 7.4 (buffer B), resolved through SDS-PAGE, and identified through MALDI-TOF mass spectrometry. Target protein concentrations were determined using the Bradford method (500-0001) with Dye Reagent (both from Bio-Rad Laboratories Inc., Hercules, CA, USA).
(§6) To prevent primary amines reducing the biotinylation ratio, the EPSPS and mutations were exchanged with PBS buffer using a PD10 desalting column (17085101; Cytiva, Global Life Sciences Solutions USA, LLC.) as described by the manufacturer. The proteins were then concentrated using an ultrafilter (Merck KGaA, Darmstadt, Germany), then the concentrations were determined, as described above. The proteins were biotinylated using the EZ-Link™ Sulfo-NHS-LC-biotinylation kit (21435; Thermo Fisher Scientific Inc.) as described by the manufacturer. A mixture of protein and sulfo-NHS-LC-biotin at a molar ratio of 1:5 was incubated at 4 °C for 16 h, then free biotin molecules were removed using a PD10 desalting column and biotinylated protein concentrations were measured using the Bradford method.
(§7) We used a ForteBio Octet 96 with high-capacity Super Streptavidin (SSA) biosensors (18-5057; Sartorius Stedim Biotech GmbH, Göttingen, Germany) to study the protein-small molecule binding, and to derive the relevant kinetic data, as well as the affinity constants. The SSA sensors were activated in 50 mM HEPES buffer (pH 7.5) containing 0.02% Tween 20 (v/v) for 10 min, then biotinylated proteins were loaded onto them online for 2 min. Thereafter, the sensors were quenched with 2 μg mL^−1 of biocytin (B1592 Thermo Fisher Scientific Inc.) for 60 s. […] To obtain accurate interaction kinetics, a reference well (containing only buffer) and a reference biosensor were included in the assay for double subtraction analysis.
(§8) Data for protein-small molecule binding studies and curve fitting were analysed using ForteBio Data Analysis Software v. 9.0. Dissociation constants (KD) indicating binding affinity for protein-small molecules were derived by determining Kon and Koff (association and disassociation rate constants, respectively); KD = Koff/Kon.

[5] = biological target: E. indica EPSPS Pro106Ser (P106S) mutant, recombinant expressed in E. coli (Eleusine indica, UniProt Q95AK0, P107S); assay: biochemical; assay type: binding
Description: as §5, §6, §7, §8

[6] = biological target: E. indica EPSPS Pro106Leu (P106L) mutant, recombinant expressed in E. coli (Eleusine indica, UniProt Q95AK0, P107L); assay: biochemical; assay type: binding
Description: as §5, §6, §7, §8

[7] = tested on: E. indica IISS population (homozygous TIPS in EPSPS); assay: Whole-plant dose-response assay, IISS population; assay type: in vivo, Eleusine indica; conditions: glyphosate alone, fresh weight at 21 DAT, value ± SE
Description: as §1, §2

[8] = biological target: E. indica EPSPS enzymes (WT, P106L, P106S, TIPS); assay: ForteBio Octet binding, range over the EPSPS enzymes; design: species or system Eleusine indica
Description: as §3, with “h.” for “h. The cells were then pelleted through centrifugation at 10,000× g for 10 min and resuspended in 50 mM Tris-HCl and 150 mM NaCl, pH 7.4 (buffer A). The suspension was sonicated and centrifuged at 12,000× g for 30 min, the supernatant was filtered through a 0.22 µm membrane and passed through a HiTrap His column (10318950; Cytiva, Global Life Sciences Solutions USA, LLC., Marlborough, MA, USA).”
To prevent primary amines reducing the biotinylation ratio, the EPSPS and mutations were exchanged with PBS buffer using a PD10 desalting column (17085101; Cytiva, Global Life Sciences Solutions USA, LLC.) as described by the manufacturer. The proteins were then concentrated using an ultrafilter (Merck KGaA, Darmstadt, Germany), then the concentrations were determined, as described above. […]
as §4

[9] = biological target: T2, His-tagged recombinant EiEPSPS, Pro106Leu (LL) (Eleusine indica, UniProt Q95AK0, P107L); assay: EPSPS Michaelis-Menten kinetics, Pro106Leu; assay type: biochemical; conditions: P106L mutant vs natural EPSPS
T2 sequence (Q95AK0 43-445 P107L): T1 sequence (Q95AK0 43-445) with P65L
Source text: (§9) Figure 2 Characteristics of EPSPS with different mutations (WT, P106S, P106L, and TIPS) from purified enzyme extracts of Escherichia coli variants. […] Reactions were detected as phosphate concentrations based on a standard curve (y = 97.049x − 0.4245, R^2 = 0.99). This experiment was repeated twice with three biological replicates.
as §3, with “A).” for “A). The suspension was sonicated and centrifuged at 12,000× g for 30 min, the supernatant was filtered through a 0.22 µm membrane and passed through a HiTrap His column (10318950; Cytiva, Global Life Sciences Solutions USA, LLC., Marlborough, MA, USA).”

[10] = biological target: T3, His-tagged recombinant EiEPSPS, Thr102Ile + Pro106Ser (IISS) (Eleusine indica, UniProt Q95AK0, P107S/T103I); assay: EPSPS Michaelis-Menten kinetics, Thr102Ile + Pro106Ser; assay type: biochemical; conditions: TIPS mutant vs natural EPSPS
T3 sequence (Q95AK0 43-445 T103I/P107S): T1 sequence (Q95AK0 43-445) with T61I, P65S
Source text: as §9
as §3, with “A).” for “A). The suspension was sonicated and centrifuged at 12,000× g for 30 min, the supernatant was filtered through a 0.22 µm membrane and passed through a HiTrap His column (10318950; Cytiva, Global Life Sciences Solutions USA, LLC., Marlborough, MA, USA).”

[11] = biological target: T4, His-tagged recombinant EiEPSPS, Pro106Ser (SS) (Eleusine indica, UniProt Q95AK0, P107S); assay: EPSPS Michaelis-Menten kinetics, Pro106Ser; assay type: biochemical; conditions: P106S mutant vs natural EPSPS
T4 sequence (Q95AK0 43-445 P107S): T1 sequence (Q95AK0 43-445) with P65S
Source text: as §9
as §3, with “A).” for “A). The suspension was sonicated and centrifuged at 12,000× g for 30 min, the supernatant was filtered through a 0.22 µm membrane and passed through a HiTrap His column (10318950; Cytiva, Global Life Sciences Solutions USA, LLC., Marlborough, MA, USA).”

[12] = pH 7.5, read-out: Kon, association rate constant

Sequence of E. indica EPSPS Thr102Ile + Pro106Ser (TIPS) mutant, recombinant expressed in E. coli (Q95AK0 entry or part of it T103I/P107S): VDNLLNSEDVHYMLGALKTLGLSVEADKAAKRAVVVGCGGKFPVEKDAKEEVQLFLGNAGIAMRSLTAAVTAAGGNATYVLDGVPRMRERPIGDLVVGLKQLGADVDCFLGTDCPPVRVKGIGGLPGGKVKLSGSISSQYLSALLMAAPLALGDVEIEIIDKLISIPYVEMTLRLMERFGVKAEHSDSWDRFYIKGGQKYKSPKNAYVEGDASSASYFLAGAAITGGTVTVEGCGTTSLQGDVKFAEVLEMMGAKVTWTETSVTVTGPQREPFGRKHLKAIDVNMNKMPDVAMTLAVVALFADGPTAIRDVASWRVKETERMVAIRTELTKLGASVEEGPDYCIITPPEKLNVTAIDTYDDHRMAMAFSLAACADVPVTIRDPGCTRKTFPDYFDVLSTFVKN
Sequence of E. indica EPSPS Pro106Ser (P106S) mutant, recombinant expressed in E. coli (Q95AK0 entry or part of it P107S): as the sequence (Q95AK0 entry or part of it T103I/P107S) above, with I61T counted along it
Sequence of E. indica EPSPS Pro106Leu (P106L) mutant, recombinant expressed in E. coli (Q95AK0 entry or part of it P107L): as the sequence (Q95AK0 entry or part of it T103I/P107S) above, with I61T, S65L counted along it

SMILES	x0, herbicide dose required for 50% plant growth reduction (GR50) [1] [g a.e. ha^-1]	Kd [2] [µM]	x0, herbicide dose required for 50% plant growth reduction (GR50) [3] [g a.e. ha^-1]	shikimate accumulation in leaf tissues (wild type (WT) E. indica) [µg/g]	Kd [4] [µM]	Kd [5] [µM]	Kd [6] [µM]	x0, herbicide dose required for 50% plant growth reduction (GR50) [7] [g a.e. ha^-1]	Kd ([2]; Wild type EPSPS, Octet SSA biosensors, HEPES pH 7.5, read-out: KD, dissociation constant (KD = Koff/Kon)) [µM]	kon ([2]; Wild type EPSPS, Octet SSA biosensors, HEPES pH 7.5, read-out: Kon, association rate constant) [M⁻¹ s⁻¹]	Kd [8] [µM]	Km (PEP) fold relative to natural EPSPS [9] [fold]	Km (PEP) fold relative to natural EPSPS [10] [fold]	kon ([4]; Thr102Ile + Pro106Ser EPSPS, Octet SSA biosensors, HEPES pH 7.5, read-out: Kon, association rate constant) [M⁻¹ s⁻¹]	kon [5, 12] [M⁻¹ s⁻¹]	kon [6, 12] [M⁻¹ s⁻¹]	Km (PEP) fold relative to natural EPSPS [11] [fold]
O=C(O)CNCP(=O)(O)O [Glyphosate, glyphosate]	707.2 ± 122.1	58	540.5 ± 25.6	366.4	23	25	28	3272.9 ± 164.1									
C=C(OP(=O)(O)O)C(=O)O [PEP, phosphoenolpyruvate]					2000	1200	1100		3100	8	1100 to 3100	2.4	4.1	33	31.8	31.3	0.7
